Experimental data from US20120107423A1, “Methods of Using Inhaled Nitric Oxide Gas for Treatment of Acute Respiratory Distress Syndrome” (INO Therapeutics LLC, priority 2010, published 2012).

How the values were obtained:
[1] = test system: patients with moderately severe acute lung injury (ALI) / ARDS survivors; experiment: Pulmonary function tests at 6 months post-treatment in ARDS survivors (iNO 5 ppm vs placebo); format: in vivo, human
Method: (§1) A large-scale, randomized, blinded, placebo-controlled study was carried out in the Intensive Care Units (ICUs) of 46 US hospitals to evaluate the efficacy of low-dose (5 ppm) iNO in 385 patients with moderately severe Acute Lung Injury (ALI). The primary endpoint of this study was number of days alive and off assisted breathing.
(§2) Patients had moderately severe acute lung injury (ALI), defined by a modification of American-European Consensus Conference criteria (PaO2/inspired oxygen concentration [FiO2] ratio of ≦250 mm Hg), due to causes other than severe sepsis. Patients with evidence of non-pulmonary system failure at the time of randomization and sepsis-induced ARDS were excluded. Patients were also excluded if they had sustained hypotension requiring vasopressor support, hemodynamic profiles supporting severe sepsis, severe head injury, severe burns, or evidence of other significant organ system dysfunction at baseline.
(§3) Patients were randomly assigned to receive either inhaled placebo gas (nitrogen) or 5 ppm of iNO (INO Therapeutics Inc., Port Allen, La.). All patients, healthcare professionals, and investigators were blinded to the assigned treatment. Inhaled NO was administered via INOvent® delivery system (Datex-Ohmeda, Madison, Wis.) that blended treatment gas (nitrogen or NO at 100-ppm balance nitrogen) 1:20 with ventilator gases to achieve a target ppm value in the inspiratory limb of the ventilator.
(§4) All patients using the iNO delivery system received mechanical ventilatory support. Treatment continued with active or placebo gas until one of the following criteria were met: [1] end of trial (28 days); [2] death; or [3] adequate oxygenation (arterial oxygen saturation by pulse oximetry [SpO2]≧92% or PaO2 of ≧63 mm Hg) without treatment gas at ventilator settings of FiO2≦0.4 and positive end-expiratory pressure (PEEP) of ≦5 cm H2O. Decreases in treatment gas continued in 20% decrements (titrated down by 1 ppm for inhaled NO) every 30 minutes until either the treatment gas concentration reached 0% or oxygenation criteria were not satisfied. If oxygenation criteria were not met, treatment gas concentration was titrated up until they were again achieved. Increments of upward titration were determined by the clinician, based on degree of arterial desaturation.
Pulmonary function testing (PFT) at 6 months post-treatment was required in both iNO- and placebo-treated patients as part of the original study design. PFTs included forced expiratory volume in 1 second (FEV1), FEV1% predicted, forced vital capacity (FVC), FVC % predicted, the FEV1/FVC ratio, FEV1/FVC ratio % predicted, forced expiratory flow (FEF) from 25% to 75% of FVC (FEF25-75%), FEF25-75%% predicted, functional residual capacity (FRC), FRC % predicted, total lung capacity (TLC), TLC % predicted, CO diffusion, and CO diffusion % predicted.
(§5) All between-group differences in PFT results were evaluated using the Wilcoxon rank sum test. Between-group differences in baseline clinical and demographic characteristics were assessed with the Fisher's exact test and the chi-square test for categorical variables and with the Wilcoxon rank sum test for continuous variables. Baseline oxygenation and respiratory/oxygenation parameters in the two groups were compared using Wilcoxon rank sum tests. The areas under the curve (AUCs) of FiO2, PEEP, and PaO2/FiO2 ratio were calculated using the trapezoidal rule. The null hypothesis that the respective AUCs were normally distributed was rejected employing the Shapiro-Wilk test. A Wilcoxon rank sum test was utilized to assess the differences in each median AUC between treatment groups. A p value <0.05 was considered significant.
A total of 92 of the 302 survivors (30%) were capable of and participated in the 6-month follow-up pulmonary function analysis (iNO, n=51; placebo, n=41). The balance of surviving subjects was lost to follow-up for reasons unknown, and PFT data are not available. […]

[2] = test system: patients with moderately severe acute lung injury (ALI) / ARDS survivors; experiment: Respiratory parameters during mechanical ventilation: cumulative exposure (AUC) over study gas administration; format: in vivo, human; conditions: for Duration of exposure: PaO2/FiO2 ratio: during study gas administration / length of mechanical ventilation
Method: Baseline oxygenation measures included PaO2, arterial partial pressure of CO2 (PaCO2), SpO2, FiO2, PEEP, PaO2/FiO2 ratio, […], tidal volume, and mean airway pressure. Respiratory parameters (FiO2, PEEP, and PaO2/FiO2 ratio) were recorded on case report forms every 12 hours during mechanical ventilation.
as §5

[3] = test system: patients with moderately severe Acute Lung Injury (ALI); experiment: Safety results, adverse events in the initial 28-day study period; format: in vivo, human; conditions: iNO 5 ppm
Method: as §1
Safety results for the initial 28-day study period have been reported and are summarized briefly here. A total of 630 adverse events (AEs) were reported for patients treated with iNO versus 666 events for those who received placebo. Respiratory system AEs occurred in 51% versus 61% of patients receiving iNO and placebo, respectively, primarily due to higher frequencies of pneumonia, pneumothorax, and apnea in the placebo group.

[4] = test system: patients with moderately severe Acute Lung Injury (ALI); experiment: Randomized, blinded, placebo-controlled 28-day study of low-dose (5 ppm) iNO, intent-to-treat analysis; format: in vivo, human
Method: as §1, §2, §3, §4

[5] = at STP; cited from earlier work
[6] = test system: experimental animals and ARDS patients; conditions: cited from earlier work
ARDS patients = conditions: cited from earlier work
[7] = experimental animals and ARDS patients

**Q.** For `[N]=O` [Inhaled NO, nitric oxide], which “FRC, % predicted” value ([1]; mean) is on record?
**A.** 93.98 % predicted

**Q.** What about the TLC ([1]; mean) of the same molecule?
**A.** 5.54 L

**Q.** What about the “TLC, % predicted” value ([1]; mean) of the same molecule?
**A.** 93.33 % predicted

**Q.** And the CO diffusion ([1]; mean (SD))?
**A.** 18.25 (6.77) mL/min/mm Hg

**Q.** What about the “CO diffusion, % predicted” value ([1]; mean (SD)) of the same molecule?
**A.** 71.02 (20.79) % predicted

**Q.** And the “FEF25/75%, % predicted” value ([1]; mean (SD))?
**A.** 72.50 (27.71) % predicted

**Q.** And the “FEV1, % predicted” value ([1]; mean (SD))?
**A.** 80.23 (21.21) % predicted

**Q.** What about the FEV1/FVC ([1]; mean (SD)) of the same molecule?
**A.** 77.45 (15.19) %

**Q.** And the “FEV1/FVC, % predicted” value ([1]; mean (SD))?
**A.** 96.14 (13.79) % predicted

**Q.** And the FRC ([1]; mean (SD))?
**A.** 3.00 (0.94) L

**Q.** And the FVC ([1]; mean (SD))?
**A.** 3.36 (1.09) L

**Q.** What about the “FVC, % predicted” value ([1]; mean (SD)) of the same molecule?
**A.** 83.78 (19.38) % predicted

**Q.** And the FEV1 ([1]; mean (SD), iNO 5 ppm up to 28 days)?
**A.** 2.64 (0.91) L

**Q.** And the “FEV1, % predicted” value ([1]; mean (SD), listed as iNO)?
**A.** significantly greater

**Q.** And the “FEV1/FVC, % predicted” value ([1]; mean (SD), listed as iNO)?
**A.** significantly greater

**Q.** And the “FVC, % predicted” value ([1]; mean (SD), listed as iNO)?
**A.** significantly greater

**Q.** What about the TLC ([1]; mean, listed as iNO) of the same molecule?
**A.** significantly greater

**Q.** And the “TLC, % predicted” value ([1]; mean, listed as iNO)?
**A.** significantly greater

**Q.** What about the “Duration of exposure: PaO2/FiO2 ratio” value ([2]; mean ± SD) of the same molecule?
**A.** 262 ± 407

**Q.** And the “Duration of exposure: PaO2/FiO2 ratio” value ([2]; mean ± SD, listed as iNO)?
**A.** 2637±1729

**Q.** What about the “Duration of exposure: FiO2” value ([2]; during study gas administration, mean ± SD, N = 51) of the same molecule?
**A.** 6.34 ± 4.5

**Q.** And the “Cumulative exposure to FiO2, PEEP and PaO2/FiO2 ratio, versus placebo” value ([2]; over the length of mechanical ventilation)?
**A.** less cumulative exposure to all three variables

**Q.** What about the “Duration of exposure, total FiO2” value ([2]; over the length of mechanical ventilation, mean ± SD) of the same molecule?
**A.** 6.3 ± 4.5 days

**Q.** And the “Aggregate per-patient changes from baseline in supplemental oxygen, PEEP, or PaO2/FiO2 ratio, versus placebo” value ([2]; through day 28 (FIG. 2a-c))?
**A.** no significant differences between groups

**Q.** And the “Patients with respiratory system AEs” value [3]?
**A.** 51%

**Q.** What about the “Total adverse events (AEs) reported” value [3] of the same molecule?
**A.** 630 events

**Q.** And the “Partial pressure of arterial oxygen (PaO2)” value ([4]; initial 24 hours of treatment, p<0.05, resolved by 48 hours)?
**A.** significant increase

**Q.** And the “Days alive and meeting oxygenation criteria for extubation, benefit versus control” value ([4]; intent-to-treat)?
**A.** no significant benefit

**Q.** What about the “Mortality, benefit versus control (nitrogen gas)” value ([4]; intent-to-treat, 5 ppm iNO, 385 patients) of the same molecule?
**A.** no significant benefit

**Q.** What about the “Days alive and off assisted breathing, benefit versus control” value ([4]; intent-to-treat, primary endpoint) of the same molecule?
**A.** no significant benefit

**Q.** What about the Solubility in water [5] of the same molecule?
**A.** about 2 mM

**Q.** And the “Formation of platelet-leukocyte aggregates” value ([6]; correlated with NO-dependent inhibition of platelet P-selectin expression)?
**A.** significantly inhibiting

**Q.** What about the “Pulmonary concentrations of interleukin (IL)-8” value [6, 7] of the same molecule?
**A.** significantly decreases

**Q.** What about the “Pulmonary concentrations of neutrophils” value [6, 7] of the same molecule?
**A.** significantly decreases

**Q.** What about the “H2O2 production by polymorphonuclear leukocytes” value (ARDS patients) of the same molecule?
**A.** significantly decrease

**Q.** And the “IL-6 concentration in BAL fluid” value (ARDS patients)?
**A.** decreased

**Q.** And the “IL-8 concentration in BAL fluid” value (ARDS patients)?
**A.** decreased

**Q.** And the “β2-integrin CD11b/CD18 expression by polymorphonuclear leukocytes” value (ARDS patients)?
**A.** significantly decrease
